Data from US11117875B2, “Crystalline forms, preparation methods and pharmaceutical compositions of ozanimod” (Hangzhou SoliPharma Co., Ltd., priority 2016, dated 2021).
Read-outs that look alike come from different tables or passages of the source.

Tests used:
Assay type in all cases: physicochemical
[1] = Form stability in water (stirred in water)
Procedure: The form stability in water of the known ozanimod of Preparation Example 1 and ozanimod Form 2 of Example 10 were compared. The procedures are detailed as follows: took about 20 mg of the above two samples respectively, stirred in water, and studied the form stability.

[2] = Storage at room temperature in desiccators with relative humidity ranging from 10% to 90%; settings: relative humidity 10% to 90%
[3] = Form stability under 97% relative humidity; settings: for Crystalline form, storage time 5 days: 97% RH environment; for Crystalline form, storage time 0 day: 0 day (start)
Procedure: The known ozanimod of Preparation Example 1 and ozanimod Form 3 of Example 19 were compared in their form stability under 97% relative humidity. The procedures are detailed as follows: placed about 20 mg of the above two samples respectively at 97% RH environment, and studied their crystalline form stability.

[4] = Form stability test at 50° C.; settings: for Crystalline form, storage time 0 day / Form stability after having been placed at 50° C. for 1 day: 50° C.; for Crystalline form, storage time 0 day: 0 day (start); for Crystalline form, storage time 5 days: placed at 50° C.
Procedure: The known ozanimod solid of Preparation Example 1 and ozanimod Form 1 of Example 1 were tested in form stability test. The procedures are detailed as follows: placed about 20 mg of the above two samples respectively at 50° C., and studied their form stability.

[5] = listed as known amorphous form of ozanimod

| Crystalline form after stirred in water for 3 days [1] | Crystalline form after stirred in water for 3 days ([1]; listed as Form 2) | Crystalline form after stirred in water for 3 days ([1]; listed as ozanimod Form 2) | Appearance, XRPD and melting point after 4 months storage [2] | Crystalline form after stirred in water for 3 days [1, 5] | Crystalline form, storage time 5 days [3] | Crystalline form, storage time 0 day ([3]; 97% RH) | Form stability at room temperature and 97% relative humidity for 3 days [3, 5] | Crystalline form, storage time 0 day [4] | Form stability after having been placed at 50° C. for 1 day [4, 5] | Crystalline form, storage time 5 days [4] | Form stability after having been placed at 50° C. for 1 day [4] | Crystalline form, storage time 5 days ([4]; listed as ozanimod Form 1) | Form stability after storage at 97% RH for 10 days ([3]; 97% RH, 10 days) | Form stability at room temperature and 97% relative humidity for 3 days [3] | SMILES |
| --- | --- | --- | --- | --- | --- | --- | --- | --- | --- | --- | --- | --- | --- | --- | --- |
| Remained Form 2 | remained unchanged | remained unchanged | remained unchanged | – | – | – | – | – | – | – | – | – | – | – | CC(C)Oc1ccc(-c2nc(-c3cccc4c3CC[C@@H]4NCCO)no2)cc1C#N [Ozanimod Form 2, 5-[3-[(1S)-2,3-dihydro-1-(2-hydroxyethylamino)-1H-inden-4-yl]-1,2,4-oxadiazol-5-yl]-2-isopropoxybenzonitrile] |
| Transformed to Form 2 | – | – | – | turned to Form 2 | Weak diffraction | Amorphous | turned to Form 3 | Amorphous | showed diffraction peaks | Weak diffraction | – | – | – | – | CC(C)Oc1ccc(-c2nc(-c3cccc4c3CC[C@@H]4NCCO)no2)cc1C#N [The known ozanimod, 5-[3-[(1S)-2,3-dihydro-1-(2-hydroxyethylamino)-1H-inden-4-yl]-1,2,4-oxadiazol-5-yl]-2-isopropoxybenzonitrile, reference compound] |
| – | – | – | remained unchanged | – | – | – | – | Form 1 | – | Remained Form 1 | remained unchanged | more stable | – | – | CC(C)Oc1ccc(-c2nc(-c3cccc4c3CC[C@@H]4NCCO)no2)cc1C#N [Ozanimod Form 1, 5-[3-[(1S)-2,3-dihydro-1-(2-hydroxyethylamino)-1H-inden-4-yl]-1,2,4-oxadiazol-5-yl]-2-isopropoxybenzonitrile] |
| – | – | – | – | – | Remained Form 3 | Form 3 | – | – | – | – | – | – | remained unchanged | remained unchanged | CC(C)Oc1ccc(-c2nc(-c3cccc4c3CC[C@@H]4NCCO)no2)cc1C#N [Ozanimod Form 3, 5-[3-[(1S)-2,3-dihydro-1-(2-hydroxyethylamino)-1H-inden-4-yl]-1,2,4-oxadiazol-5-yl]-2-isopropoxybenzonitrile] |
